pEC50, pKi: −log10 of the molar value. Like-named read-outs stand apart in the source and are kept apart here.

The values below come from publication doi:10.1101/2025.11.20.689572v1 (biorxiv, 2025).

Assay [1] concerns the target T1, HRH3 (Homo sapiens, UniProt Q9Y5N1). Description: cell-based. Set-up: species or system HEK293; TRUPATH BRET2 G-protein dissociation; antagonist mode against agonist EC80. The note with it: agonist mode.
In another assay the target is T2, HTR1A (Homo sapiens, UniProt P08908).
T2 sequence (P08908 1-422): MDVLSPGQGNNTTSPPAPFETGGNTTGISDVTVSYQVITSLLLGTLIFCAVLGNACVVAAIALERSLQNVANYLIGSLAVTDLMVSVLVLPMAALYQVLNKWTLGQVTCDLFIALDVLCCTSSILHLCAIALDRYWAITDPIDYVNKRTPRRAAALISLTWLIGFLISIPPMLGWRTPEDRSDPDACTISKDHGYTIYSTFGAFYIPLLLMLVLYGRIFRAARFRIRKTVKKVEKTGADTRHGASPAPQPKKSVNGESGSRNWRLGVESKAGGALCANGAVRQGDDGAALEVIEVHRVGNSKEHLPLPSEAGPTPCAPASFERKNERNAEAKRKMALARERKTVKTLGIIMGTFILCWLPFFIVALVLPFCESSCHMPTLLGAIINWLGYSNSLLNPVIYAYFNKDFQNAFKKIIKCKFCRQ
Description: cell-based. More on the design: species or system HEK293; TRUPATH BRET2 G-protein dissociation; antagonist mode against agonist EC80. Conditions: agonist mode.

The target of the next assay is T3, DRD4 (Homo sapiens, UniProt P21917).
T3 sequence (P21917 1-419): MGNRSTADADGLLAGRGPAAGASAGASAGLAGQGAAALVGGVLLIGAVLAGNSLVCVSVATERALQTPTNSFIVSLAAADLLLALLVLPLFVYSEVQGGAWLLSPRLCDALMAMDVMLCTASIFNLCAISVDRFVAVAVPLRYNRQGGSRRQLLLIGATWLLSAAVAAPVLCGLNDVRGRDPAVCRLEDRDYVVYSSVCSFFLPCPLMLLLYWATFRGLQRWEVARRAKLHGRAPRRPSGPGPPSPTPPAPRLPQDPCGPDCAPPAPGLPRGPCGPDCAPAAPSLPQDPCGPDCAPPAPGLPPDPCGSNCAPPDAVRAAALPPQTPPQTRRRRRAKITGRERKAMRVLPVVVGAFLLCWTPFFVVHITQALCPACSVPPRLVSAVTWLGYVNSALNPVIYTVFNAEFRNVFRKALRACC
Description: biochemical. More on the design: species or system HEK293; PDSP competitive radioligand binding, membranes of transfected HEK293 cells, filtration, Ki by Cheng-Prusoff. The procedure: Competitive radioligand binding assays were performed at the NIMH Psychoactive Drug Screening Program (PDSP) using membranes from transiently transfected HEK293 cells in 96-well format as described. Complete, target-specific protocols are available at the PDSP website (https://pdsp.unc.edu/pdspweb/?site=assays). Primary screenings were run at a single test concentration (10 µM) in quadruplicate. […] Secondary assays were conducted in triplicate using 12-point serial dilutions (0, 0.1, 0.3, 1, 3, 10, 30, 100, 300 nM; 1, 3, 10 µM). Assays were performed in a final volume of 125 µL per well in binding buffer, as detailed in the NIMH PDSP protocols (e.g., standard binding buffer: 50 mM Tris-HCl, pH 7.4, 10 mM MgCl2, 0.1 mM EDTA). Radioligand concentrations were chosen near the target-specific Kd. Total and nonspecific binding were defined in the absence and presence, respectively, of 10 µM reference ligand specific for each receptor. After 90 min incubation at room temperature, reactions were terminated by vacuum filtration onto 0.3% polyethyleneimine-pretreated UniFilter-96 GF/C Microplates using a FilterMate harvester, washed three times with ice-cold buffer (50 mM Tris HCl, pH 7.4), dried, treated with MicroScint-O [compound left out] scintillation cocktails, and counted on a MicroBeta counter. Equilibrium inhibition constants (Ki) were calculated from fitted IC50 values using the Cheng–Prusoff equation [14] with the assay-specific radioligand concentration and Kd. TABLE 1. […] Results represented mean ± SEM from a minimum of 3 independent assays, each in triplicate. ND=not determined.

In assay [2] the target is T1, HRH3. Description: cell-based. Set-up: species or system HTLA; PRESTO-Tango beta-arrestin2 recruitment, luciferase luminescence, concentration-response. The note with it: Assay=Tango; agonist mode.
The target in a further assay is T4, 5-HT2C (Homo sapiens, UniProt P28335).
T4 construct: gene HTR2C; full-length receptor; HEK293 cell membranes
Description: competitive radioligand binding, HEK293 membranes. The text has this: competitive radioligand binding, HEK293 membranes on 5-HT2C

Another assay addresses T5, α2C (Homo sapiens, UniProt P18825).
T5 construct: gene ADRA2C; full-length receptor; HEK293 cell membranes
Description: competitive radioligand binding, HEK293 membranes. The text has this:
competitive radioligand binding, HEK293 membranes on α2C

The target of another assay is T6, M2 (Homo sapiens, UniProt P08172).
T6 construct: gene CHRM2; full-length receptor; HEK293 with TRUPATH sensors (function)
T6 sequence (P08172 1-466): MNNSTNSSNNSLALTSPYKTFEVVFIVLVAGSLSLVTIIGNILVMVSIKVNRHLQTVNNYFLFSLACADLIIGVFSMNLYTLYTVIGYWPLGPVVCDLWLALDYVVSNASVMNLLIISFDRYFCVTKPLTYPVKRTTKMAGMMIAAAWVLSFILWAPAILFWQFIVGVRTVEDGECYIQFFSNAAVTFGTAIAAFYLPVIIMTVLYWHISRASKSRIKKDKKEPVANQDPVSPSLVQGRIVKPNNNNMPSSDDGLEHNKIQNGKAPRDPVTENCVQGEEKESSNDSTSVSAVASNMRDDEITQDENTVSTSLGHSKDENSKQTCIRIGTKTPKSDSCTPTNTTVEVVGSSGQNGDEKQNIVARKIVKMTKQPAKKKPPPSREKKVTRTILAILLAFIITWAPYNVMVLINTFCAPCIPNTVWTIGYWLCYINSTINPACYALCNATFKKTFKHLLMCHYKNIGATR
Description: TRUPATH BRET2 G protein dissociation, HEK293. Format: cell-based. The note with it: HBSS, […] HEPES pH […] °C; agonist mode. A general note: Bioluminescence resonance energy transfer reports proximity on the nanometre scale.

A further assay concerns the target T7, H2 (Homo sapiens, UniProt P25021).
T7 construct: gene HRH2; full-length receptor; HEK293 cell membranes
Description: competitive radioligand binding, HEK293 membranes. The text has this:
competitive radioligand binding, HEK293 membranes on H2

Where [3] appears, read: N-Desmethyl Xanomeline, Assay=Gi2.
Where [4] appears, read: N-Desmethyl Xanomeline, Assay=GoB.

T1 sequence (Q9Y5N1 whole entry): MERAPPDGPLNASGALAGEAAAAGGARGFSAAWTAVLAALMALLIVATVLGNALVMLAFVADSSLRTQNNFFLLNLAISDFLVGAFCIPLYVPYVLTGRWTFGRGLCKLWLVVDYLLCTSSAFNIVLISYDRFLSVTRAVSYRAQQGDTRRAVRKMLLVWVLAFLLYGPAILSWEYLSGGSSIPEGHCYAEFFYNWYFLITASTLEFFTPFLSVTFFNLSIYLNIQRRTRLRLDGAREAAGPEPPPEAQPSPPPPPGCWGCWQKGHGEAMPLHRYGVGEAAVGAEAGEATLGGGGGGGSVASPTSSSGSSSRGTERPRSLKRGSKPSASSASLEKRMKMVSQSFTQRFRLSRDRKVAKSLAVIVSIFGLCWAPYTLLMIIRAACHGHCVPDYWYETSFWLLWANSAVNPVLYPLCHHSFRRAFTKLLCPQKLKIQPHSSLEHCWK
T5 sequence (P18825 whole entry): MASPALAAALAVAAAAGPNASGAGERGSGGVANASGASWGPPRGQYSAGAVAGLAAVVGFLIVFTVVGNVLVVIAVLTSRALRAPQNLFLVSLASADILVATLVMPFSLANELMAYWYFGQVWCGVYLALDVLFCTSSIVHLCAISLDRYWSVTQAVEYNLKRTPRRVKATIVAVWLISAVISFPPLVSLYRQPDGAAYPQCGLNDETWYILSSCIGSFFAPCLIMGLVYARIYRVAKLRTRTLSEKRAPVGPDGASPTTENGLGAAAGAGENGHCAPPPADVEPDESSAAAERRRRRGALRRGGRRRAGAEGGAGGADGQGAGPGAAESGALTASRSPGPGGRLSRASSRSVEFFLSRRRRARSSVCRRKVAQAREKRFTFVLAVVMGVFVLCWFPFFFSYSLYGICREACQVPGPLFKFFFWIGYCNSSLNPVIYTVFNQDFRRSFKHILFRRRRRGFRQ
T4 sequence (P28335 33-458): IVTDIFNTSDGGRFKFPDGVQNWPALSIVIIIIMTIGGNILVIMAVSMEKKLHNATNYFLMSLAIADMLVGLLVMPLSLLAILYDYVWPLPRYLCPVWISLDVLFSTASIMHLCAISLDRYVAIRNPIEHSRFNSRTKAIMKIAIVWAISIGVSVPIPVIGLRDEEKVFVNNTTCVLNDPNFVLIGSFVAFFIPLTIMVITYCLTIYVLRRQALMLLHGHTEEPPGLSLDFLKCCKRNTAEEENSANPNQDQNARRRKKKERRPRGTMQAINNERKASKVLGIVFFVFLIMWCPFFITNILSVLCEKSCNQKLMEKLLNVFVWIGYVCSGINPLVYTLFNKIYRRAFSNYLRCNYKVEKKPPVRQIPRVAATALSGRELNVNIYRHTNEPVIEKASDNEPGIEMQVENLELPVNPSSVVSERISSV
T7 sequence (P25021 whole entry): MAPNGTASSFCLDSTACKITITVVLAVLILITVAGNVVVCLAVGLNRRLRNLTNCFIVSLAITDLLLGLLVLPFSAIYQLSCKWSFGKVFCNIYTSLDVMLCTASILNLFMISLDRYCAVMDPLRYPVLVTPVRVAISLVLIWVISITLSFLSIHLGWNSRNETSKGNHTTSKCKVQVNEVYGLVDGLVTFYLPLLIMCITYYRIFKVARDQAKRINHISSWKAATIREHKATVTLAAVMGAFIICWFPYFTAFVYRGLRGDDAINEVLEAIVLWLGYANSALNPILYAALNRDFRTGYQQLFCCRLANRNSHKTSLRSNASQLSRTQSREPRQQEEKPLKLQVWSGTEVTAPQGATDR

On to `CCCCCCOc1nsnc1C1=CCCNC1` [N-desmethylxanomeline], for which the pEC50 (usually −log10 of the EC50, conventionally taken in molar units) was 4.96 on HRH3 [1] (N-Desmethyl Xanomeline, Assay=Gi1); 5.34 at HRH3 [1] (setting [3]); 4.73 on HRH3 [1] (N-Desmethyl Xanomeline, Assay=Gi3); 5.15 on HRH3 [1] (setting [4]); 5.36 on HTR1A (setting [3]); 5.88 on HTR1A (N-Desmethyl Xanomeline, Assay=GoA). Also, the pEC50 at HTR1A (setting [4]) is 5.70; at HRH3 [2], 5.12. For the same compound, on DRD4 (read-out: N-desmethyl-xanomeline (PDSP) pKi (converted)), the Ki was above 10 µM. Further, the pKi (as a rule, −log10 of the Ki, conventionally taken in molar units) at 5-HT2C was 6.49; at α2C, 6.68; at H2, 5.99. At M2, the EC50 result is recorded as “differential activation of M1-M5 muscarinic receptor transducers”.

As for `CCCCCCOc1nsnc1C1=CCCN(C)C1` [Xanomeline], the pEC50 at HRH3 [1] (Xanomeline, Assay=Gi2) was 4.99; on HRH3 [1] (Xanomeline, Assay=GoA), 5.38; on HRH3 [1] (Xanomeline, Assay=GoB) it was 5.58; at HTR1A (Xanomeline, Assay=Gi2), 4.93; on HTR1A (Xanomeline, Assay=GoA) it was 5.63; at HTR1A (Xanomeline, Assay=GoB), 5.43. Further, the pEC50 at HRH3 [2] was 5.02. For the same compound, the pKi is 5.70 at DRD4, 6.69 on 5-HT2C, 6.80 at α2C and 6.46 on H2. On M2, the EC50 result is listed as “differential activation of M1-M5 muscarinic receptor transducers”.
